6 molecules from patent US6306854A, “Chemical compounds” (Glaxosmithkline, priority 1998, dated 2001) can be followed below.

One assay concerns hPPAR alpha. The assay is described as follows: Binding Assay (displacement of Radioligand from GST-hPPAR alpha). On the set-up: species or system human. Conditions: 60 nM Radioligand. From the text: Bound radioactivity eluted in the column void volume and was quantitated by liquid scintillation counting.
Assay [1] concerns PPAR alpha over PPAR gamma. The assay is described as follows: Transfection assay, selectivity for PPAR alpha over PPAR gamma (GAL4-hPPAR alpha and GAL4-hPPAR gamma). It is filed as cell-based, human. Particulars: CV-1 cells. The protocol:
Plasmids: GAL4-hPPAR alpha chimera and UAS-tk-SPAP reporters.
Transfection assay: SPAP reporter. CV-1 cells were plated in DME medium supplemented with 10% delipidated fetal calf serum at a density of 2.4×10^4 cells per well in a 96-well plate (Costar) 16-24 h before transfection. In general, 8.0 ng of reporter plasmid, 25.0 ng of β-galactosidase expression vector (pCH 110, Pharamacia), and 2.0 ng of GAL4-hPPAR alpha or GAL4-hPPAR gamma expression vector were mixed with carrier DNA (pBluescript, Stratagene) to a total of 80 ng of DNA per well in a volume of […] optiMEM I medium (Life Technologies). To this, a second mix, containing […] optiMEM I medium and […] of LIPOFECTAMINE™ (Life Technologies), was added. After 30 min. an additional […] of optiMEM I medium were added and the combined mix was then applied to the cells. […] Alternatively, alkaline phosphatse and β-galactosidase activities were measured separately using standard protocols. Briefly, cells were lysed by adding […] 0.5% Triton X-100 to the supernatant.

The subject of the next assay is Zucker lean male rats. The assay is described as follows: Diet-Induced Model of Dyslipidemia, Zucker lean male rats. It is filed as in vivo, rat. Particulars: males; for NEFA: before drug 0.72. From the text:
(§1) Zucker lean male rats and Zucker fa/fa female rats were randomized into 3 treatment groups. The randomization was based on serum triglyceride concentration after three months on the TEKLAD high fat diet. Dosing with Example 5 or the appropriate vehicle, by oral gavage, began after 4 months of high fat feeding. Plasma glucose, lactate, serum insulin and lipid concentrations were obtained weekly, beginning on day 7 through 48 after the initiation of therapy. Metabolic data from each treatment group was collected weekly. Dexascan determinations of body mass composition obtained after 4 months on the high fat diet served as baseline. Changes in body mass composition due to therapy were determined by repeat measurements at the end of the study.
(§2) Treatment Group B Example 5 (0.1 mg/kg) dosed twice a day.
(§3) Treatment Group C Example 5 (0.3 mg/kg) dosed twice a day.

Another assay relates to Zucker fa/fa female rats. The assay can be described thus: Diet-Induced Model of Dyslipidemia, Zucker fa/fa female rats. Format: in vivo, rat. Particulars: females.
From the text: as §1, §2, §3

Consider `CCCCCCCN(CCc1ccc(OC(C)(CC)C(=O)O)cc1)C(=O)Nc1ccc(F)cc1F` (centres unmarked) [Cold Radioligand, 2-(4-(2-(1-Heptyl-3-(2,4-difluorophenyl)ureido)ethyl)phenoxy)-2-methylbutanoic Acid], for which the “Bound radioactivity in presence of competitor” value with hPPAR alpha (10 μM competitor, 4° C., 2-3 hr, mean of triplicate, no competitor 140000) was found to be 25000 dpm.

Regarding `CC(C)(Sc1ccc(CCN(CCCCC2CCCCC2)C(=O)NC2CCCCC2)cc1)C(=O)O` [Example 1, 2-(4-(2-(1-(Cyclohexanebutyl)-3-cyclohexylureido)ethyl)phenylthio)-2-methylpropionic Acid], the “activity ratio, PPAR alpha over PPAR gamma” value (“activity ratio, PPAR alpha” below) in assay [1] is given as “greater than 100”.

On to `CC(C)(Sc1ccc(CCN(CCc2ccc(-c3ccccc3)cc2)C(=O)NC2CCCCC2)cc1)C(=O)O` [Example 2, 2-(4-(2-(1-(4-Biphenylethyl)-3-cyclohexylureido)ethyl)phenylthio)-2-methylpropionic Acid], for which the “activity ratio, PPAR alpha” value in assay [1] is “greater than 100”.

As to `CC(C)(Sc1ccc(CCN(Cc2ccc(-c3ccccc3C(F)(F)F)cc2Cl)C(=O)NC2CCCCC2)cc1)C(=O)O` [Example 3, 2-(4-(2-(1-(2-Chloro-4-(2-trifluoromethylphenyl)phenylmethyl)-3-(cyclohexyl)ureido)ethyl)phenylthio)-2-methylpropionic Acid], the “activity ratio, PPAR alpha” value in assay [1] was “greater than 100”.

In the case of `CCCCCCCN(CCc1ccc(SC(C)(C)C(=O)O)cc1)C(=O)Nc1ccc(F)cc1F` [Example 5, 2-(4-(2-(1-Heptyl-3-(2,4-difluorophenyl)ureido)ethyl)phenylthio)-2-methylpropionic Acid], the NEFA with Zucker lean male rats (0.1 mg/kg oral gavage twice a day, Week 1, vehicle 0.85) was determined as 0.73 m Eq/L; in the assay on Zucker lean male rats (0.1 mg/kg oral gavage twice a day, Week 4, vehicle 0.65) it was 0.57 m Eq/L; in the assay with Zucker lean male rats (0.1 mg/kg oral gavage twice a day, Week 7, vehicle 0.60), 0.58 m Eq/L; in the assay with Zucker lean male rats (0.3 mg/kg oral gavage twice a day, Week 1, vehicle 0.85), 0.69 m Eq/L; in the assay with Zucker lean male rats (0.3 mg/kg oral gavage twice a day, Week 4, vehicle 0.65), 0.47 m Eq/L; in the assay on Zucker lean male rats (0.3 mg/kg oral gavage twice a day, Week 7, vehicle 0.60) it was 0.46 m Eq/L. The NEFA in the assay on Zucker fa/fa female rats (0.1 mg/kg oral gavage twice a day, Week 1, before drug 11.15, vehicle 6.78) worked out at 2.47 m Eq/L; in the assay on Zucker fa/fa female rats (0.1 mg/kg oral gavage twice a day, Week 4, before drug 11.15, vehicle 2.79), 1.32 m Eq/L; with Zucker fa/fa female rats (0.1 mg/kg oral gavage twice a day, Week 7, before drug 11.15, vehicle 3.77), 1.75 m Eq/L; in the assay on Zucker fa/fa female rats (0.3 mg/kg oral gavage twice a day, Week 1, before drug 13.06, vehicle 6.78) it was 1.45 m Eq/L; in the assay with Zucker fa/fa female rats (0.3 mg/kg oral gavage twice a day, Week 4, before drug 13.06, vehicle 2.79) it was 0.59 m Eq/L; with Zucker fa/fa female rats (0.3 mg/kg oral gavage twice a day, Week 7, before drug 13.06, vehicle 3.77) it was 0.53 m Eq/L. Besides, the Cholesterol with Zucker lean male rats (0.1 mg/kg oral gavage twice a day, Week 1, before drug 221, vehicle 191) was found to be 138 mg/dL; in the assay with Zucker lean male rats (0.1 mg/kg oral gavage twice a day, Week 4, before drug 221, vehicle 224), 189 mg/dL; with Zucker lean male rats (0.1 mg/kg oral gavage twice a day, Week 7, before drug 221, vehicle 215) it was 148 mg/dL; in the assay on Zucker lean male rats (0.3 mg/kg oral gavage twice a day, Week 1, before drug 235, vehicle 191) it was 138 mg/dL; with Zucker lean male rats (0.3 mg/kg oral gavage twice a day, Week 4, before drug 235, vehicle 224), 174 mg/dL; with Zucker lean male rats (0.3 mg/kg oral gavage twice a day, Week 7, before drug 235, vehicle 215) it was 151 mg/dL. For the same molecule, the Cholesterol amounted to 610 mg/dL in the assay with Zucker fa/fa female rats (0.1 mg/kg oral gavage twice a day, Week 1, before drug 1648, vehicle 1186); 733 mg/dL in the assay on Zucker fa/fa female rats (0.1 mg/kg oral gavage twice a day, Week 4, before drug 1648, vehicle 1319); 632 mg/dL with Zucker fa/fa female rats (0.1 mg/kg oral gavage twice a day, Week 7, before drug 1648, vehicle 923); 350 mg/dL in the assay with Zucker fa/fa female rats (0.3 mg/kg oral gavage twice a day, Week 1, before drug 1908, vehicle 1186); 404 mg/dL with Zucker fa/fa female rats (0.3 mg/kg oral gavage twice a day, Week 4, before drug 1908, vehicle 1319); 422 mg/dL with Zucker fa/fa female rats (0.3 mg/kg oral gavage twice a day, Week 7, before drug 1908, vehicle 923). Moreover, the “Body Weight” value with Zucker lean male rats (0.1 mg/kg oral gavage twice a day, Week 1, before drug 636, vehicle 610) is on record as 617 g; with Zucker lean male rats (0.1 mg/kg oral gavage twice a day, Week 4, before drug 636, vehicle 610) it was 592 g; with Zucker lean male rats (0.1 mg/kg oral gavage twice a day, Week 7, before drug 636, vehicle 632), 597 g; with Zucker lean male rats (0.3 mg/kg oral gavage twice a day, Week 1, before drug 639, vehicle 610) it was 608 g; in the assay on Zucker lean male rats (0.3 mg/kg oral gavage twice a day, Week 4, before drug 639, vehicle 610), 577 g; in the assay with Zucker lean male rats (0.3 mg/kg oral gavage twice a day, Week 7, before drug 639, vehicle 632), 565 g. Further, the “Body Weight” value is 721 g in the assay on Zucker fa/fa female rats (0.1 mg/kg oral gavage twice a day, Week 1, before drug 665, vehicle 684); 723 g with Zucker fa/fa female rats (0.1 mg/kg oral gavage twice a day, Week 4, before drug 665, vehicle 700); 710 g in the assay on Zucker fa/fa female rats (0.1 mg/kg oral gavage twice a day, Week 7, before drug 665, vehicle 706); 673 g with Zucker fa/fa female rats (0.3 mg/kg oral gavage twice a day, Week 1, before drug 645, vehicle 684); 643 g in the assay with Zucker fa/fa female rats (0.3 mg/kg oral gavage twice a day, Week 4, before drug 645, vehicle 700); 582 g in the assay with Zucker fa/fa female rats (0.3 mg/kg oral gavage twice a day, Week 7, before drug 645, vehicle 706). Moreover, the Triglycerides in the assay on Zucker lean male rats (0.1 mg/kg oral gavage twice a day, Week 1, before drug (after 4 months on high-fat diet) 828, vehicle 718) worked out at 460 mg/dL; in the assay with Zucker lean male rats (0.1 mg/kg oral gavage twice a day, Week 4, before drug 828, vehicle 741) it was 467 mg/dL; with Zucker lean male rats (0.1 mg/kg oral gavage twice a day, Week 7, before drug 828, vehicle 725), 584 mg/dL; in the assay on Zucker lean male rats (0.3 mg/kg oral gavage twice a day, Week 1, before drug 926, vehicle 718) it was 527 mg/dL; with Zucker lean male rats (0.3 mg/kg oral gavage twice a day, Week 4, before drug 926, vehicle 741), 174 mg/dL; in the assay on Zucker lean male rats (0.3 mg/kg oral gavage twice a day, Week 7, before drug 926, vehicle 725) it was 219 mg/dL. Moreover, the Triglycerides with Zucker fa/fa female rats (0.1 mg/kg oral gavage twice a day, Week 1, before drug (after 4 months on high-fat diet) 9310, vehicle 5357) stood at 2717 mg/dL; with Zucker fa/fa female rats (0.1 mg/kg oral gavage twice a day, Week 4, before drug 9310, vehicle 10414), 3913 mg/dL; in the assay on Zucker fa/fa female rats (0.1 mg/kg oral gavage twice a day, Week 7, before drug 9310, vehicle 5465), 2627 mg/dL; in the assay on Zucker fa/fa female rats (0.3 mg/kg oral gavage twice a day, Week 1, before drug 9190, vehicle 5357), 1627 mg/dL; in the assay with Zucker fa/fa female rats (0.3 mg/kg oral gavage twice a day, Week 4, before drug 9190, vehicle 10414) it was 687 mg/dL; in the assay on Zucker fa/fa female rats (0.3 mg/kg oral gavage twice a day, Week 7, before drug 9190, vehicle 5465) it was 538 mg/dL.

For the molecule `[3H]C(CCCC)C([3H])CN(CCc1ccc(OC(C)(CC)C(=O)O)cc1)C(=O)Nc1ccc(F)cc1F` (centres unmarked) [Radioligand, 2-(4-(2-(2,3-Ditritio-1-heptyl-3-(2,4-difluorophenyl)ureido)ethyl)phenoxy)-2-methylbutanoic Acid], the “Specific Binding” value in the assay with hPPAR alpha (no competitor minus 10 μM Cold Radioligand) was determined as 115000 dpm.
